Here are results for three substances from patent publication US8409859B2, “Differentiation of non-embryonic stem cells to cells having a pancreatic phenotype” (Regents of the University of Minnesota, priority 2005, dated 2013).

Experiment [1] relates to rat MAPCs. The experiment is described as follows: Cytokine mediated differentiation of rat MAPCs, Q-RT-PCR and cell survival. The note with it: activin-A, BMP4 and cyclopamine or anti-SHH Ab withdrawn after d6, cells then maintained with the factor. The experiment is classed as cell-based.
Description: For Q-RT-PCR reactions described herein, the primer sequences are presented in Tables 3-5 and the following protocols were used: RNA was extracted from the cells with the aid of the RNeasy Mini Kit (Qiagen; Valencia Calif.), followed by a DNase Treatment with DNA-Free™ (Ambion, Austin, Tex.). The RNA was reverse transcribed with TaqMan (Applied Biosystems, Foster City, Calif.; Step 1 (Incubation): 25° C., 10 min; Step 2 (RT): 48° C., 30 min; Step 3 (RT Inactivation): 95° C., 10 min).
Following reverse transcription, Quantitative Real Time PCR (Q-RT-PCR) was performed as follows: Step 1: 50° C., 2 min (Incubation); Step 2: 95° C., 10 min (Taq activation); Step 3: 95° C., 15 sec (Denaturation) followed by 60° C., 1 min (Extension) and repeat for 40 cycles; Step 4: 95° C., 15 sec (Dissociation); Step 5: 60° C., 20 sec (Melting curve); Step 6: 95° C., 15 sec.
In an initial series of studies, the effect of cell density (about 10^4-10^5 cells/cm^2), ECM component (fibronectin, collagen, matrigel) and different concentrations (10-100 ng/mL) of bFGF (10-100 ng/mL), FGF2 (10-100 ng/mL), Activin A (e.g., about 10 ng/mL to about 100 ng/mL), BMP4 (e.g., about 10 ng/mL to about 50 ng/mL), retinoic acid (about 10^−6M), EGF (e.g., about 10 to about 100 ng/mL), FGF10 (e.g., about 50 to about 150 ng/mL, including about 100 ng/mL), HGF (e.g., about 10 to about 100 ng/mL), GDF11 (e.g., about 50 to abut 150 ng/mL), cyclopamine (e.g., about 10 μM), anti-SHH antibody (Ab; e.g., about 10 μg/mL), nicotinamide (e.g., 5 μM to about 50 μM, including about 10 μM), exendin 4 (about 5 nM to about 50 nM, including about 10 nM), betacellulin (e.g., about 50 to abut 150 ng/mL) alone or in combinations of 2 or 3 and in different temporal sequences, on the induction of transcription factors, insulin, glucagon and somatostatin expression levels after 6, 12 and 18 days using Q-RT-PCR was determined.
Subsequent addition of factors believed to play a role in further proliferation and differentiation from pancreas-committed cells to mature endocrine pancreas, including EGF (e.g., about 50 ng/mL), HGF (e.g., about 50 ng/mL) and FGF10 (e.g., about 100 ng/mL), either alone or in combination was tested. […] Further optimization was obtained by adjusting the duration of the different steps along the differentiation course, as well addition of β-cellulin (50 ng/mL).
For experiment [2], the system named is human MAPCs. The note with it: about 10 ng/mL LIF; cited from earlier work.
Experiment [3] relates to murine MAPCs. The conditions noted are these: about 10 ng/mL LIF added to PDGF-BB and EGF culture; cited from earlier work.

As for EGF: epidermal growth factor, in experiment [1], the cell survival entry is listed as “significantly better”.

For “LIF: leukemia inhibitory factor, culture supplement”, the “short-term cell growth (cell doubling time till 25 cell doublings, Oct 4 expression)” value in experiment [2] was “did not affect short-term cell growth”. Also, the cell growth entry in experiment [3] was “significantly enhanced cell growth”.

For “HGF: mitogenic protein used at about 50 ng/mL”, the cell survival result in experiment [1] is listed as “significantly better”.
